Assay results published in US20180194762A1 (Pharmacyclics LLC, priority 2017, published 2018).
Where two headings read alike, the source gives them in different places.

How the values were obtained:
Format in all cases: biochemical
[1] = target: T1, panel of kinases (Homo sapiens, UniProt P51813); assay: Inhibition of a panel of kinases (in vitro HotSpot kinase assay, 33P-ATP, 1 μM ATP), other kinases; settings: BMX wild-type, read-out: BMX-WT IC50
T1 sequence (P51813 1-675): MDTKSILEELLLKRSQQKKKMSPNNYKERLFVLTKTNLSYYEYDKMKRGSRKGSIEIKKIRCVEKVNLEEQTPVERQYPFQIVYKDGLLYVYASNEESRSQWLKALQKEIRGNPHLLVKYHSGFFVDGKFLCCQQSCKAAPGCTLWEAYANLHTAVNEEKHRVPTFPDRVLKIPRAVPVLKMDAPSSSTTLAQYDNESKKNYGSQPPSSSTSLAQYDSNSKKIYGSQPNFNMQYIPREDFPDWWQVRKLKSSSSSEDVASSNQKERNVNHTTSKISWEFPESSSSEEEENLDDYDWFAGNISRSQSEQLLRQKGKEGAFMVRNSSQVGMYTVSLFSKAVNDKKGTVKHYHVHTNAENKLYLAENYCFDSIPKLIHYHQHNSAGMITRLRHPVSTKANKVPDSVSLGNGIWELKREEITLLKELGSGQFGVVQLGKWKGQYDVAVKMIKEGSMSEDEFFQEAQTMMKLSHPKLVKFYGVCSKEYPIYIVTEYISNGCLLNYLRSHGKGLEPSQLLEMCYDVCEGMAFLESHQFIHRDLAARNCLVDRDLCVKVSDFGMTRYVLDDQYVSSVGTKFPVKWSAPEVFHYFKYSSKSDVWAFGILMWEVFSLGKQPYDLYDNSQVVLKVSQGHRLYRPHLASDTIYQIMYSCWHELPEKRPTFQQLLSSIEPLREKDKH
How it was run: (§1)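 Purified kinase enzymes were incubated with an appropriate substrate and 33P-labelled ATP at 1 μM ATP. Inhibition was measured radiometrically from incorporation of the 33P label.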

[2] = target: T2, Btk (Homo sapiens, UniProt Q06187); assay: Btk in vitro inhibitory activity (one of Method A TR-FRET, Method B electrophoretic mobility shift, Method C radiometric filter binding)
T2 construct: purified from insect cells as a full-length construct containing a N-terminal 6X-His tag; His6 (N); made in house; host or cells: insect cells (Method C)
How it was run: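 Method A: TR-FRET with 0.5 nM Btk at [ATP]=Km, EDTA-quenched, 665/615 nm ratio; Ki(app) converted to IC50. Method B: 1 nM full-length His6 human BTK, 1 μM FAM peptide, pH 7.5, mobility-shift product/sum ratio, 12-point 4-parameter fit. Method C: radiometric filter binding, 8 nM His-tagged BTK, 0.2 mg/mL poly-Glu-Tyr.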

[3] = target: T3, TEC (Homo sapiens, UniProt P42680); assay: Inhibition of a panel of kinases (in vitro HotSpot kinase assay, 33P-ATP, 1 μM ATP); settings: for IC50: HotSpot kinase assay, 1 μM ATP; for TEC/Btk: ratio of TEC IC50 to Btk IC50 (selectivity)
T3 sequence (P42680 1-631): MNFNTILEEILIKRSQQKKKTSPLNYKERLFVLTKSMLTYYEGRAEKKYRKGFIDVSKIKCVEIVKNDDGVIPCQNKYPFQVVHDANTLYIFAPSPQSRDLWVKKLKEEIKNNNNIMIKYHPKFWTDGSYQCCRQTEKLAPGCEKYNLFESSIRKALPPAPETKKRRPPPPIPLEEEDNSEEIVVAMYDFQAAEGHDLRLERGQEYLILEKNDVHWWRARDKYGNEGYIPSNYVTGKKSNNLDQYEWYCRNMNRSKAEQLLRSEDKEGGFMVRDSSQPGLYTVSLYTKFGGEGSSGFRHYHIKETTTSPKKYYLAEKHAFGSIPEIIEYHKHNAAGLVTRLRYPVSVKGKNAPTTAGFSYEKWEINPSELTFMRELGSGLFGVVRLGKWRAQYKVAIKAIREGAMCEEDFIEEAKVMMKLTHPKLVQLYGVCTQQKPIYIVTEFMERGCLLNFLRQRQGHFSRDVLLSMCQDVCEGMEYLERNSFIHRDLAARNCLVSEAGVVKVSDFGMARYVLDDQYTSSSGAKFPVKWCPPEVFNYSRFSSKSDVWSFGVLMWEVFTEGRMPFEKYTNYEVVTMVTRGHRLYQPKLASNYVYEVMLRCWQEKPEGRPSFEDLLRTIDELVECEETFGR
How it was run: as §1

[4] = wild-type Btk, read-out: Btk-WT IC50
[5] = method is one of A, B or C, not stated which, read-out: IC50 values against Btk

T2 sequence (Q06187 whole entry): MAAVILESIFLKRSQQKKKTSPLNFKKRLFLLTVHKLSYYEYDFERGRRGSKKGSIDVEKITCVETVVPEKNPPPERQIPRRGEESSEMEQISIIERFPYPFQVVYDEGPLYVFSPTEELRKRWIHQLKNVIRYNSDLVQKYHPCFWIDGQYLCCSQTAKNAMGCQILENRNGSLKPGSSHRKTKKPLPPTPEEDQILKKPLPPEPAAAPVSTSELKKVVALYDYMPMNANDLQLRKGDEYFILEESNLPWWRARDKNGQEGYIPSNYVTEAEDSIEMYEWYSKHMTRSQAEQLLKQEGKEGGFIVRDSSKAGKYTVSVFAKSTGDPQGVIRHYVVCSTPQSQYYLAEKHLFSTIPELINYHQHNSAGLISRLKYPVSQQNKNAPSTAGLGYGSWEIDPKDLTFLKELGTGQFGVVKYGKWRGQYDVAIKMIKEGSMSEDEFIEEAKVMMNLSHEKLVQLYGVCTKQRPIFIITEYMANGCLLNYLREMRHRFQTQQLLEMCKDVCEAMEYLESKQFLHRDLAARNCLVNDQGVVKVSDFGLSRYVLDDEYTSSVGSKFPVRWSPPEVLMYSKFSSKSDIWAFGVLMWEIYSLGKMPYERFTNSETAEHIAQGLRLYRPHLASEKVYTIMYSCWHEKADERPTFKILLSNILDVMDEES

Structure (SMILES) | IC50 [1] | IC50 [2, 4] | IC50 [3] | TEC/Btk [3] | IC50 [2, 5]
CC(C)(C)c1nnc(C(=O)NCc2ccc(-c3ccnc4[nH]nc(N[C@@H]5CCNC5)c34)cc2F)o1 [Example 77, 5-tert-butyl-N-{[2-fluoro-4-(3-{[(3R)-pyrrolidin-3-yl]amino}-1H-pyrazolo[3,4-b]pyridin-4-yl)phenyl]methyl}-1,3,4-oxadiazole-2-carboxamide] | > 10 µM | 159 nM | > 10000 nM | >100 | 
O=C(NCc1ccc(-c2ccnc3[nH]nc(N[C@@H]4CCNC4)c23)cc1F)c1ccc(C2CC2)cc1 [Compound 35, 4-cyclopropyl-N-{[2-fluoro-4-(3-{[(3R)-pyrrolidin-3-yl]amino}-1H-pyrazolo[3,4-b]pyridin-4-yl)phenyl]methyl}benzamide] | 8.48 µM | 505 nM | 7000 nM | 14 | 
C=CC(=O)N1CC[C@@H](Nc2n[nH]c3nccc(-c4cc(F)cc(CNC(=O)c5noc(C(C)(C)C)n5)c4)c23)C1 [Example 88, 5-tert-butyl-N-{[3-fluoro-5-(3-{[(3R)-1-(prop-2-enoyl)pyrrolidin-3-yl]amino}-1H-pyrazolo[3,4-b]pyridin-4-yl)phenyl]methyl}-1,2,4-oxadiazole-3-carboxamide] | 0.713 µM | 287 nM | 2380 nM | 8 | 
CCC(=O)N1CC[C@@H](Nc2n[nH]c3nccc(-c4ccc(C5(NC(=O)c6noc(C(C)(C)C)n6)CC5)cc4)c23)C1 [Compound 5, (R)-5-(tert-butyl)-N-(1-(4-(3-((1-propionylpyrrolidin-3-yl)amino)-1H-pyrazolo[3,4-b]pyridin-4-yl)phenyl)cyclopropyl)-1,2,4-oxadiazole-3-carboxamide] | 4.35 µM | 52.7 nM | 2590 nM | 49 | 
CC1(C(=O)N2CC[C@@H](Nc3n[nH]c4nccc(-c5ccc(CNC(=O)c6ccc(C7CC7)cc6)c(F)c5)c34)C2)COC1 [Compound 41, 4-cyclopropyl-N-{[2-fluoro-4-(3-{[(3R)-1-(3-methyloxetane-3-carbonyl)pyrrolidin-3-yl]amino}-1H-pyrazolo[3,4-b]pyridin-4-yl)phenyl]methyl}benzamide] | > 10 µM | 251 nM | 3010 nM | 12 | 
O=c1c2c(F)cc(C3CC3)cc2ccn1-c1cccc(-c2ccnc3[nH]nc(N[C@@H]4CCNC4)c23)c1CO [Compound 17, (R)-6-cyclopropyl-8-fluoro-2-(2-(hydroxymethyl)-3-(3-(pyrrolidin-3-ylamino)-1H-pyrazolo[3,4-b]pyridin-4-yl)phenyl)isoquinolin-1 (2H)-one] | 6.41 µM | 312 nM | 5920 nM | 19 | 
C[C@H]1CC[C@@H](Nc2n[nH]c3nccc(-c4ccc(CNC(=O)c5noc(C(C)(C)C)n5)c(F)c4)c23)CN1C(=O)NCC(F)(F)F [Example 138, (2S,5R)-5-{[4-(4-{[(5-tert-butyl-1,2,4-oxadiazol-3-yl)formamido]methyl}-3-fluorophenyl)-1H-pyrazolo[3,4-b]pyridin-3-yl]amino}-2-methyl-N-(2,2,2-trifluoroethyl)piperidine-1-carboxamide] | > 10 µM | > 10000 nM | > 10000 nM |  | 
CC(C)(C)n1ccc(C(=O)NCc2ccc(-c3ccnc4[nH]nc(N[C@@H]5CCNC5)c34)cc2F)n1 [Example 64, 1-tert-butyl-N-{[2-fluoro-4-(3-{[(3R)-pyrrolidin-3-yl]amino}-1H-pyrazolo[3,4-b]pyridin-4-yl)phenyl]methyl}-1H-pyrazole-3-carboxamide] | > 10 µM | 167 nM | > 10000 nM | >100 | 
CC(C)(C)c1noc(C(=O)NCc2ccc(-c3ccnc4[nH]nc(N[C@H]5CCNC5)c34)cc2F)n1 [Example 162, 3-tert-butyl-N-{[2-fluoro-4-(3-{[(3S)-pyrrolidin-3-yl]amino}-1H-pyraozlo[3,4-b]pyridin-4-yl)phenyl]methyl}-1,2,4-oxadiazole-5-carboxamide] | 6.05 µM | 4.5 nM | 6260 nM | 1391 | < 10 nM

Other lines, results leading:

IC50 [1] | IC50 [2, 4] | IC50 [3] | TEC/Btk [3] | IC50 [2, 5] | Structure (SMILES)
0.529 µM | 0.511 nM | 386 nM | 755 |  | CC(C)(C)c1nc(C(=O)NCc2ccc(-c3ccnc4[nH]nc(N5CCC[C@H](C(=O)O)C5)c34)cc2F)no1 [Example 252, (3S)-1-[4-(4-{[(5-tert-butyl-1,2,4-oxadiazole-3-carbonyl)amino]methyl}-3-fluorophenyl)-1H-pyrazolo[3,4-b]pyridin-3-yl]piperidine-3-carboxylic acid]
0.043 µM | 3.91 nM | 99 nM | 25 | < 10 nM | C=CC(=O)N1CC[C@@H](Nc2n[nH]c3nccc(-c4ccc(CNC(=O)c5cnc(N(C)C)o5)c(F)c4)c23)C1 [Example 177, 2-(dimethylamino)-N-{[2-fluoro-4-(3-{[(3R)-1-(prop-2-enoyl)pyrrolidin-3-yl]amino}-1H-pyrazolo[3,4-b]pyridin-4-yl)phenyl]methyl}-1,3-oxazole-5-carboxamide]
0.498 µM | 18 nM | 685 nM |  |  | C[C@@H](NC(=O)c1cc(C(C)(C)O)on1)c1ccc(-c2ccnc3[nH]nc(N4CCOCC4)c23)cc1 [Example 404, 5-(2-hydroxypropan-2-yl)-N-[(1R)-1-{4-[3-(morpholin-4-yl)-1H-pyrazolo[3,4-b]pyridin-4-yl]phenyl}ethyl]-1,2-oxazole-3-carboxamide]
1.52 µM | 0.267 nM | 802 nM | 3004 |  | C[C@@H](NC(=O)c1nc(C(C)(C)C)no1)c1ccc(-c2ccnc3[nH]nc(N4CCC(N)CC4)c23)cc1F [Example 188, N-[(1R)-1-{4-[3-(4-aminopiperidin-1-yl)-1H-pyrazolo[3,4-b]pyridin-4-yl]-2-fluorophenyl}ethyl]-3-tert-butyl-1,2,4-oxadiazole-5-carboxamide]
1.24 µM | 0.379 nM | 291 nM |  |  | C[C@H]1CC[C@@H](Nc2n[nH]c3nccc(-c4ccc(CNC(=O)c5nc(C(C)(C)C)no5)c(F)c4)c23)CN1C(=O)CO [Example 420, 3-tert-butyl-N-{[2-fluoro-4-(3-{[(3R,6S)-1-(hydroxyacetyl)-6-methylpiperidin-3-yl]amino}-1H-pyrazolo[3,4-b]pyridin-4-yl)phenyl]methyl}-1,2,4-oxadiazole-5-carboxamide]
7.79 µM | 559 nM | > 10000 nM | >100 |  | CCc1cc(C(=O)NCc2ccc(-c3ccnc4[nH]nc(N[C@@H]5CCCN(C(=O)N(C)C)[C@@H]5C)c34)cc2F)no1 [Example 171, (2R,3R)-3-{[4-(4-{[(5-ethyl-1,2-oxazol-3-yl)formamido]methyl}-3-fluorophenyl)-1H-pyrazolo[3,4-b]pyridin-3-yl]amino}-N,N,2-trimethylpiperidine-1-carboxamide]
2.2 µM | 1.26 nM | 905 nM | 718 |  | CCNC(=O)N1C[C@H](Nc2n[nH]c3nccc(-c4ccc(CNC(=O)c5nc(C(C)(C)C)no5)c(F)c4)c23)CC[C@@H]1C [Example 209, (2S,5R)-5-{[4-(4-{[(3-tert-butyl-1,2,4-oxadiazole-5-carbonyl)amino]methyl}-3-fluorophenyl)-1H-pyrazolo[3,4-b]pyridin-3-yl]amino}-N-ethyl-2-methylpiperidine-1-carboxamide]
